In patent US8372420B2, “Compositions and methods for coating medical implants” (Angiotech International AG, priority 2002, dated 2013):

Experiments:
Type in all cases: cell-based
E. coli UB1005 C498 = assay: MIC determination by microtitre broth dilution; conditions: for Minimum Inhibitory Concentrations: E. coli UB1005 C498, wt, Gram−, Mueller Hinton broth, 37° C., 24 h
Method: (§1) A. MIC assay of various gram negative and positive bacteria MIC assays were conducted essentially as described by Amsterdam, D. 1996. Susceptibility testing of antimicrobials in liquid media, p. 52-111. In Loman, V., ed. Antibiotics in laboratory medicine, 4th ed. Williams and Wilkins, Baltimore, Md.

[1] = tested on: K. pneumoniae ATCC13883 C238; assay: MIC determination by microtitre broth dilution; conditions: for Minimum Inhibitory Concentrations: K. pneumoniae ATCC13883 C238, wt, Gram−, Mueller Hinton broth, 37° C., 24 h
Method: as §1

[2] = tested on: P. aeruginosa PAE/K799 H187; assay: MIC determination by microtitre broth dilution; conditions: for Minimum Inhibitory Concentrations: P. aeruginosa PAE/K799 H187, wt, Gram−, Mueller Hinton broth, 37° C., 24 h
Method: as §1

S. aureus ATCC25923 C622 = assay: MIC determination by microtitre broth dilution; conditions: S. aureus ATCC25923 C622, wt, Gram+; Mueller Hinton broth, 37° C., 24 h
Method: as §1

S. epidermidis C621 = assay: MIC determination by microtitre broth dilution; conditions: S. epidermidis C621, wt, Gram+; Mueller Hinton broth, 37° C., 24 h
Method: as §1

S. pyogenes C721 = assay: MIC determination by microtitre broth dilution; conditions: S. pyogenes C721, wt, Gram+; Todd Hewitt broth, 37° C., 24 h
Method: as §1

[3] = tested on: organisms known to cause vascular access catheter-related infections; assay: Antibacterial activity of anticancer agents

Row | Compound | Minimum Inhibitory Concentrations (E. coli UB1005 C498) | Minimum Inhibitory Concentrations [1] | activity against Pseudomonas aeruginosa [2] | Minimum Inhibitory Concentrations [2] | Minimum Inhibitory Concentrations (S. aureus ATCC25923 C622) | Minimum Inhibitory Concentrations (S. epidermidis C621) | Minimum Inhibitory Concentrations (S. pyogenes C721) | antibacterial activity against the organisms known to cause vascular access catheter-related infections [3] | activity against Escheridia coli (E. coli UB1005 C498) | activity against Klebsiella pneumoniae [1]
1 | Cisplatin | N | N | some activity | 10^−4 Molar | N | N | N | did not have antibacterial activity |  | 
2 | COc1cccc2c1C(=O)c1c(O)c3c(c(O)c1C2=O)C[C@@](O)(C(=O)CO)C[C@@H]3O[C@H]1C[C@H](N)[C@H](O)[C@H](C)O1 [doxorubicin, Doxorubicin] | 10^−4 Molar | 10^−6 Molar | have activity | 10^−5 Molar | 10^−5 Molar | 10^−6 Molar | 10^−7 Molar |  | have activity | 
3 | Sc1ncnc2nc[nH]c12 [6-mercaptopurine] | N | N |  | N | N | N | N | did not have antibacterial activity |  | 
4 | NC(=O)NO [hydroxyurea] | N | N | some activity | 10^−4 Molar | N | N | 10^−4 Molar | did not have antibacterial activity |  | 
5 | Sc1ncc2[nH]cnc2n1 [2-mercaptopurine] | N | N |  | N | N | N | N | did not have antibacterial activity |  | 
6 | Nc1ncnc2c1ccn2[C@@H]1O[C@H](CO)[C@@H](O)[C@H]1O [tubercidin] | N | N |  | N | N | N | N | did not have antibacterial activity |  | 
7 | CC(=O)O[C@H]1C(=O)[C@@]2(C)[C@H]([C@H](OC(=O)c3ccccc3)[C@]3(O)C[C@H](OC(=O)[C@H](O)[C@@H](NC(=O)c4ccccc4)c4ccccc4)C(C)=C1C3(C)C)[C@]1(OC(C)=O)CO[C@@H]1C[C@@H]2O [paclitaxel] |  |  |  |  |  |  |  | did not have antibacterial activity |  | 
8 | CC[C@@]1(O)C(=O)OCc2c1cc1n(c2=O)Cc2cc3ccccc3nc2-1 [camptothecin, Camptothecin] | N | N |  | N | N | 10^−4 Molar | N | did not have antibacterial activity |  | 
9 | O=c1[nH]cc(F)c(=O)[nH]1 [5-fluorouracil, 5-Fluorouracil] | 10^−6 Molar | 10^−6 Molar | have activity | 10^−5 Molar | 10^−7 Molar | 10^−7 Molar | 10^−4 Molar |  | have activity | 
10 | Nc1ccn([C@@H]2O[C@H](CO)[C@@H](O)[C@@H]2O)c(=O)n1 [Cytarabine] | N | N |  | N | N | N | N | did not have antibacterial activity |  | 
11 | O=C1c2c(O)ccc(O)c2C(=O)c2c(NCCNCCO)ccc(NCCNCCO)c21 [mitoxantrone, Mitoxantrone] | 10^−5 Molar | 10^−6 Molar | have activity | 10^−5 Molar | 10^−5 Molar | 10^−5 Molar | 10^−6 Molar |  | have activity | 
12 | CN(Cc1cnc2nc(N)nc(N)c2n1)c1ccc(C(=O)N[C@@H](CCC(=O)O)C(=O)O)cc1 [methotrexate, Methotrexate] | N | 10^−6 Molar |  | N | 10^−5 Molar | N | 10^−6 Molar |  |  | activity
13 | COc1cc([C@@H]2c3cc4c(cc3[C@@H](O[C@@H]3O[C@@H]5CO[C@@H](C)O[C@H]5[C@H](O)[C@H]3O)[C@H]3COC(=O)[C@H]23)OCO4)cc(OC)c1O [etoposide, Etoposide] | N | 10^−5 Molar |  | N | 10^−5 Molar | 10^−6 Molar | 10^−5 Molar |  |  | 
